Experiment [1] concerns the target T1, IaSGT (IALB_1185) (Ignavibacterium album, UniProt I0AIT9).
T1 construct: full length (no N-terminal signal peptide), his6-tag fusion from pET30a(+) NdeI/XhoI, E. coli BL21(DE3); homodimer
T1 sequence (I0AIT9 1-716): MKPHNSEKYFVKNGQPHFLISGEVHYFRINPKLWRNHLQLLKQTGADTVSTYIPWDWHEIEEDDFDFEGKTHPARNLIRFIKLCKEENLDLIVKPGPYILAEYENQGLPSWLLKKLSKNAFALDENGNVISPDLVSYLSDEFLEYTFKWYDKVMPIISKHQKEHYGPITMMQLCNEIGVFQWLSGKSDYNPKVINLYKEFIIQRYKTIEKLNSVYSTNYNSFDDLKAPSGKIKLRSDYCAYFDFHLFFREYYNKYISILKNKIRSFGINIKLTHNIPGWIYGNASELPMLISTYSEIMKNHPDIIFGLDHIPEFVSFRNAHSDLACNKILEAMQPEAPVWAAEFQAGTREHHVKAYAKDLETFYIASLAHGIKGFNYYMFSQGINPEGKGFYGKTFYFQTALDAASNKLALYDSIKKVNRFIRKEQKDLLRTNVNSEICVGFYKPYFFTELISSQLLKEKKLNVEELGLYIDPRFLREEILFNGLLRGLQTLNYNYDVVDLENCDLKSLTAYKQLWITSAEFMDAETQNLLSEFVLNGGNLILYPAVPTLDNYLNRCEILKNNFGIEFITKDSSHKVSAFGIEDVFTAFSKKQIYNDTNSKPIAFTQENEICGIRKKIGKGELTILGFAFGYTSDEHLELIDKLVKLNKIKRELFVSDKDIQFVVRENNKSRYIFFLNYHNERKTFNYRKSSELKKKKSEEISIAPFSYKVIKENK
The experiment can be described thus: hexokinase/G6PDH thio-NAD+ coupled glucose release. It counts as biochemical. The conditions noted are these: acceptor; donor Sop2 fixed 1 mM; pH 5.0, 37 °C. An excerpt: hexokinase/G6PDH thio-NAD+ coupled glucose release on IaSGT (IALB_1185)

Experiment [2] deals with T2, IaSGT (IALB_1185) (Ignavibacterium album, UniProt I0AIT9, E343G).
T2 construct: full length (no N-terminal signal peptide), his6-tag fusion from pET30a(+) NdeI/XhoI, E. coli BL21(DE3); homodimer
T2 sequence (I0AIT9 1-716 E343G): T1 sequence (I0AIT9 1-716) with E343G
The experiment can be described thus: X-ray crystal structure of complex. Format: binding. The conditions noted are these: subsites -1 and +1, subunit A only.

SMILES strings stand for the structures. Residue numbers refer to the chain shown, from its start.

With `N#C[C@H](O[C@@H]1O[C@H](CO[C@@H]2O[C@H](CO)[C@@H](O)[C@H](O)[C@H]2O)[C@@H](O)[C@H](O)[C@H]1O)c1ccccc1` [Amygdalin], the Km on IaSGT (IALB_1185) [1] is 150 ± 20 µM.

With `OC[C@H]1NC[C@H](O)[C@@H](O)[C@@H]1O` [DNJ, 1-deoxynojirimycin], the “X-ray crystal structure of complex” value on IaSGT (IALB_1185) [2] was “The electron densities of DNJ molecules were observed only in subunit A in the E343G mutant”.

Broadly, the Km is the substrate concentration at which the rate is half of its maximum.

The record behind these values is publication PMC8861115, “Characterization and structural analyses of a novel glycosyltransferase acting on the β-1,2-glucosidic linkages” (The Journal of Biological Chemistry, 2022).
